Blank lines part the entries; values can stand above or below the compound they belong to. Activity calls are given as the source filed them. No cut-off for these calls is given here.
Assays:
[1] = Inhibition of platelet CRTAase assessed as inhibition of platelet aggregation at 50 uM by spectrophotometry
Platelet [2] = assay: Enhancement of nitric oxide production in human platelet rich plasma at 100 uM preincubated for 10 mins before ADP addition by DCFH-DA-based flow cytometry; assay type: functional, cell-free
[3] = (§1) Antiplatelet activity in human platelet rich plasma assessed as inhibition of ADP-induced aggregation compound preincubated for 10 mins before ADP addition by aggregometry method; assay type: functional, cell-free
Platelet [4] = assay: as §1; assay type: functional, cell-free
[5] = (§2) Antiplatelet activity in human platelet rich plasma assessed as inhibition of arachidonic acid-induced aggregation preincubated for 10 mins before arachidonic acid challenge by aggregometry method; assay type: functional, cell-free
Platelet [6] = assay: as §2; assay type: functional, cell-free
Rattus norvegicus [7] = assay: Antiplatelet activity in ADP-induced platelet aggregation po dosed Sprague-Dawley rat blood compound treated for 24 hrs before ADP challenge by aggregometry method; assay type: functional, organism-based
Rattus norvegicus [8] = assay: Antiplatelet activity in arachidonic acid-induced platelet aggregation po dosed Sprague-Dawley rat blood compound treated for 24 hrs before ADP challenge by aggregometry method; assay type: functional, organism-based
Rattus norvegicus [9] = assay: Inhibition of COX1 activity in TMPD/arachidonic acid-stimulated blood of Sprague-Dawley rat at 160.2 umol/kg, po after 24 hrs by ELISA relative to control; assay type: functional
Rattus norvegicus [10] = assay: Inhibition of TxB2 production in arachidonic acid-stimulated blood of Sprague-Dawley rat assessed per mg of protein at 160.2 umol/kg, po, measured after 24 hrs by ELISA (reference value: 85.4 pg/mg of protein); assay type: functional
Rattus norvegicus [11] = assay: Inhibition of LPS-induced tissue factor expression in Sprague-Dawley rat PBMC at 160.2 umol/kg, po for 5 days by ELISA relative to control; assay type: functional
PBMC = assay: Inhibition of LPS-induced iNOS expression in Sprague-Dawley rat PBMC at 160.2 umol/kg, po for 5 days before LPS challenge by Western blot analysis; assay type: functional, organism-based
Rattus norvegicus [12] = assay: Inhibition of ADP-induced platelet aggregation in Sprague-Dawley rat blood at 125.3 umol/kg, po treated for 24 hrs before ADP challenge by aggregometry method; assay type: functional
Rattus norvegicus [13] = assay: Inhibition of arachidonic acid-induced aggregation in Sprague-Dawley rat blood at 50.6 umol/kg, po treated for 24 hrs before arachidonic acid challenge by aggregometry method; assay type: functional

SMILES: CCCCCCc1c(C)c2ccc(NC(C)=O)cc2oc1=O
inhibition [1]: Active

SMILES: CCCCc1c(C)c2cc(OC(C)=O)ccc2[nH]c1=O
inhibition [1]: Active

SMILES: CCc1c(C)c2cc(C(C)=O)c(OC(C)=O)cc2oc1=O
inhibition [1]: inactive

SMILES: CC(=O)Oc1cc2oc(=O)cc(C)c2cc1C(C)=O
inhibition [1]: inactive

SMILES: CCCCCCCCCCc1c(C)c2cc(OC(C)=O)ccc2[nH]c1=O
inhibition [1]: Active

SMILES: CC(=O)Oc1ccccc1C(=O)O [ASPIRIN]
IC50 [5]: 80 µM | inhibition in vivo at 125.3 µmol/kg (Rattus norvegicus [12]): 52% | inhibition in vivo at 50.6 µmol/kg (Rattus norvegicus [13]): 55% | inhibition (Rattus norvegicus [9]): Active | fold change (FC) (Rattus norvegicus [10]): 0.42 | fold change (FC) (Rattus norvegicus [11]): 4.95 | inhibition (PBMC): inactive

SMILES: CCCCCCCCCCc1c(C)c2ccc(NC(C)=O)cc2oc1=O
inhibition [1]: Active

SMILES: CCCCCCCCc1c(C)c2cc(OC(C)=O)ccc2[nH]c1=O
inhibition [1]: Active

SMILES: CC(=O)Oc1ccc2c(C)cc(=O)oc2c1C(C)=O
inhibition [1]: inactive

SMILES: CCc1c(C)c2ccc(OC(C)=O)c(C(C)=O)c2oc1=O
inhibition [1]: inactive

Continued, in another order:

inhibition [1]: Active
SMILES: CC(=O)Oc1ccc2c(C(F)(F)F)cc(=O)[nH]c2c1

inhibition [1]: Active
SMILES: CCc1c(C)c2ccc(NC(C)=O)cc2oc1=O

inhibition [1]: Active
SMILES: CC(=O)Nc1ccc2c(C(F)(F)F)cc(=O)oc2c1

inhibition [1]: Active
SMILES: CC(=O)Nc1ccc2c(C(F)(F)F)cc(=O)[nH]c2c1

inhibition [1]: Active
SMILES: CC(=O)Nc1ccc2c(C)cc(=O)[nH]c2c1

inhibition [1]: Active | IC50 [3]: 145 µM | IC50 [5]: 77 µM | IC50 (Rattus norvegicus [7]): 125.3 µmol/kg
SMILES: CC(=O)Nc1ccc2c(C)cc(=O)oc2c1
Activity (Platelet [2]): Active | inhibition (Platelet [4]): Dose-dependent effect | inhibition (Platelet [6]): Dose-dependent effect | Activity (Rattus norvegicus [7]): Dose-dependent effect | Activity (Rattus norvegicus [8]): Dose-dependent effect | fold change (FC) (Rattus norvegicus [9]): 3.34 | fold change (FC) (Rattus norvegicus [10]): 0.39 | fold change (FC) (Rattus norvegicus [11]): 1.93 | inhibition (PBMC): Active

inhibition [1]: Active
SMILES: CC(=O)Oc1ccc2[nH]c(=O)cc(C(F)(F)F)c2c1

inhibition [1]: Active
SMILES: CCc1c(C)c2ccc(NC(C)=O)cc2[nH]c1=O
